Patent US20020193627A1, “Novel crystalline disodium pamidronate hydrate and process for preparing it” (priority 1999, published 2002)
Read-outs that look alike come from different tables or passages of the source.

How the values were obtained:
[1] = for Stability Evaluation (Stable hydrate): form listed as stable
Method: (1) anhydrous disodium pamidronate, (2) disodium pamidronate 3˜4 hydrates prepared in the example 2(water contents 18.50%), (3) disodium pamidronate 5 hydrates (water contents 24.41%)
(1) 1.000 g 1.200 g of anhydrous disodium pamidronate was accurately weighed and 15 samples were prepared.
(2) 1.000 g -1.200 g of disodium pamidronate 3˜4 hydrates was accurately weighed and I; samples were prepared.
(3) 1.000 g-1.200 g of disodium pamidronate 5 hydrates was accurately weighed and 15 samples were prepared.
(4) The tests were carried out under the following conditions:
1) Temperature (T) and humidity (relative humidity: RH): i) 24° C., 50% RH, ii) 40° C., 0% RH, iii) 40° C., 75% RH […]
i) 1 week ii) 2 weeks, iii) 3 weeks, iv) 4 weeks. v) 5 weeks
(5) After the tests were carried out, each sample was dried under reduced pressurekbelow 5 mmHg) at 150° C. for 5 hours, weighed the lost weight and determined the water contents.
The values show water contents (%).

[2] = Soft gelatine capsule storage stability by visual observation; type: physicochemical; details: soft gelatine capsules (125 mg); 24° C., 50% RH; 6 months
Method: Soft gelatine capsules(125 mg) were respectively prepared from the crystalline disodium pamidronates of example 2 and comparative example by a conventional soft capsule manufacturing method. The soft capsules were stored in chamber which is controlled a constant temperature and hymidity (24° C., 50% RH) for 6 months. The stabilities of the soft capsules were tested by visual observation for the changes of properties, colors or shapes.

[3] = Thermal Gravity Assay (TGA); type: physicochemical
Method: In order to confirm the physical properties of 3˜4 hydrates prepared in the example 2, the lattice distances (d-values) and relative line sensitivities of X-ray diffraction patterns were measured on the conditions of step sizes 0.012 from 2 theta 5 to 2 theta 50, scan velocity 3.000 and time 2.000 by using Rigaku D/Max-IIIB X-ray Diffractometer (XRD). The test results were shown on FIG. 1a and FIG. 1b. Thermal Gravity Assay for 3˜4 hydrates (TGA data) was carried out by using TA Instruments Model 2950 TGA Thermal Analyzer (TGA). The lost weight of the 3˜4 hydrtes was measured by gradually raising the temperature of 10° C. per minute from room temperature to 500° C. The results were shown on FIG. 2.

| Molecule | water contents ([1]; 24° C., 50% RH, 1 week) [%] | water contents ([1]; 24° C., 50% RH, 2 weeks) [%] | water contents ([1]; 24° C., 50% RH, 3 weeks) [%] | water contents ([1]; 24° C., 50% RH, 4 weeks) [%] | water contents ([1]; 24° C., 50% RH, 5 weeks) [%] | behaviour of water contents on storage ([1]; 40° C. 0% RH) | behaviour of water contents on storage ([1]; 40° C. 75% RH) | water contents ([1]; 40° C., 0% RH, 1 week) [%] | water contents ([1]; 40° C., 0% RH, 2 weeks) [%] | water contents ([1]; 40° C., 0% RH, 3 weeks) [%] | water contents ([1]; 40° C., 0% RH, 4 weeks) [%] | water contents ([1]; 40° C., 0% RH, 5 weeks) [%] | Stability Evaluation (Stable hydrate) ([1]; 40° C., 0% RH) | water contents ([1]; 40° C., 75% RH, 1 week) [%] | water contents ([1]; 40° C., 75% RH, 2 weeks) [%] | water contents ([1]; 40° C., 75% RH, 3 weeks) [%] | water contents ([1]; 40° C., 75% RH, 4 weeks) [%] | water contents ([1]; 40° C., 75% RH, 5 weeks) [%] | changes of properties, colors or shapes of soft capsules by visual observation [2] | behaviour of water contents on storage ([1]; 24° C. 50% RH) | other results |
| --- | --- | --- | --- | --- | --- | --- | --- | --- | --- | --- | --- | --- | --- | --- | --- | --- | --- | --- | --- | --- | --- |
| NCCC(O)(P(=O)([O-])O)P(=O)([O-])O.[Na+].[Na+] [Example 2, crystalline disodium pamidronate 3˜4 hydrates] | 18.19 | 18.03 | 18.04 | 18.31 | 18.28 | maintained stably | maintained stably | 17.12 | 17.20 | 17.37 | 17.10 | 17.22 | 3-4 hydrate | 17.20 | 17.66 | 17.45 | 17.15 | 17.26 | No changes are observed |  | Stability Evaluation (Stable hydrate) ([1]; 24° C., 50% RH): 3-4 hydrate; Stability Evaluation (Stable hydrate) ([1]; 40° C., 75% RH): 3-4 hydrate; overall stability among disodium pamidronate hydrates ([1]; all storage conditions): structurally the most stable; temperature from which water loss begins (TGA) ([3]; 10° C. per minute from room temperature to 500° C.): 50 °C; weight loss (TGA) ([3]; till 221.11° C., 14.26%+3.845%, error of measurement ±3%): 18.105% |
| NCCC(O)(P(=O)([O-])O)P(=O)([O-])O.[Na+].[Na+] [comparative example, disodium 3-amino-1-hydroxypropane-1,1-diphosphonate] | 19.14 | 18.79 | 18.29 | 18.43 | 18.37 | maintained stably | maintained stably | 24.44 | 24.19 | 23.52 | 23.01 | 22.21 |  | 24.02 | 24.43 | 24.35 | 23.65 | 23.55 | changed in shapes (partly collapse by releasing water), colors and dewy phenomena on inner parts of the capsules | lost from 1 week | Stability Evaluation (Stable hydrate) ([1]; 40° C., 0% RH, listed as 5 hydrate): 5 hydrate; Stability Evaluation (Stable hydrate) ([1]; 40° C., 75% RH, listed as 5 hydrate): 5 hydrate |
| anhydrous disodium pamidronate | 1.45 | 8.42 | 13.34 | 17.19 | 17.84 |  |  | 0.02 | 0.06 | 0.05 | 0.08 | 0.10 | anhydrous form | 7.14 | 14.39 | 18.20 | 18.24 | 18.22 |  | absorbed water | time after which converted to 3˜4 hydrates ([1]; 24° C. 50% RH): 4 weeks; behaviour of water contents on storage ([1]; 24° C., 0% RH): maintained stably; time after which converted to 3˜4 hydrates ([1]; 40° C. 75% RH): 3 weeks |
